Test results reported in patent US20250352615A1, “COMPOSITIONS AND METHODS FOR THE MODULATION OF PIEZO1 AND TRPV4” (Duke University, priority 2021, published 2025).

How the values were obtained:
[1] = system: PSCs; assay: PSC viability (Live/Dead Cell Imaging Kit); format: cell-based; conditions: Yoda1 25 μM for 2 hr
Experimental: Mouse and human PSCs were isolated using collagenase digestion. Modified Krebs Henseleit Buffer (KHB) solution (100 mL) was prepared as previously described by Romac et al., Nat. Commun. 9(1):1715 (2018). Pancreatic tissue was digested with 2 mg of collagenase NB 8 (SERVA, catalog 17456) dissolved in 10 mL of modified KHB solution containing 1 mg soybean trypsin inhibitor (SBTI 1-S; Millipore Sigma, catalog T9003) and 20 mg BSA (Thermo Fisher Scientific; BP1600-100). Digestion solution (5 mL) was used to inflate the pancreas. Pancreas with 5 mL of digestion solution was incubated in a shaking water bath for 10 minutes at 37° C. The solution was then discarded. The pancreas tissue was cut into small pieces and digested with fresh 5 mL digestion buffer. Tissue was incubated in a shaking water bath for 40 minutes at 37° C. The cells were then separated from tissue by pipetting up-down with a 10 mL pipette and passed sequentially through a 70 μm and a 40 μm cell strainer. The filtrate was centrifuged at 150×g for 3 minutes at room temperature. The cells were washed with 10 mL Leibovitz's media (Thermo Fisher Scientific, catalog 11415-064), passed through a 20 μm filter, and centrifuged at 80×g for 3 minutes at room temperature. […] The cell viability following Yoda1 treatment was analyzed using the Live/Dead cell imaging kit (Thermo Fisher Scientific, catalog R37601). […]

[2] = system: human stellate cells; assay: Gene expression (RT-PCR) in Yoda1-treated human stellate cells; format: cell-based
Experimental: Mouse and human stellate cells were prepared and maintained in culture as previously described Swain et al., JCI Insight 7: e158288 (2022). Summarized here: Mouse and human PSCs were isolated using collagenase digestion. Modified Krebs Henseleit Buffer (KHB) solution (100 mL) was prepared as described previously in Romac et al., Nat. Commun. 9(1): 1715 (2018). Pancreatic tissue was digested with 2 mg of collagenase NB 8 (SERVA, catalog 17456) dissolved in 10 mL of modified KHB solution containing 1 mg soybean trypsin inhibitor (SBTI 1-S; Millipore Sigma, catalog T9003) and 20 mg BSA (Thermo Fisher Scientific; BP1600-100). Digestion solution (5 mL) was used to inflate the pancreas. Pancreas with 5 mL of digestion solution was incubated in a shaking water bath for 10 minutes at 37° C. The solution was then discarded. The pancreas tissue was cut into small pieces and digested with fresh 5 mL digestion buffer. Tissue was incubated in a shaking water bath for 40 minutes at 37° C. The cells were then separated from tissue by pipetting up-down with a 10 mL pipette and passed sequentially through a 70 μm and a 40 μm cell strainer. The filtrate was centrifuged at 150×g for 3 minutes at room temperature. The cells were washed with 10 mL Leibovitz's media (Thermo Fisher Scientific, catalog 11415-064), passed through a 20 μm filter, and centrifuged at 80 g for 3 minutes at room temperature. The supernate was removed, and isolated stellate cells were plated on a thin-layered Matrigel-coated glass bottom culture plate (MatTek, P35G-0-14-C). Before plating the cells, Matrigel solution (Corning, catalog 354234) at a ratio of 1.5:100 DMEM/F12 (Thermo Fisher Scientific, catalog 11330-032) was poured onto the culture plate and incubated for 2 hours at 37° C. to form a thin layer of Matrigel coating. Matrigel mixture was removed, and the plate was washed with PBS before cells were plated. Cell culture media, DMEM/F12 with 5% FBS was used for mouse stellate cells. Fresh, human pancreatic tissue (provided by Duke University's BioRepository & Precision Pathology Center under IRB approval) was digested with collagenase as described above with modifications. Collagenase (2.5 mg) in 10 mL of modified KHB solution was used for digestion. The digested tissues were filtered through a 100 μm cell strainer. The cells were cultured with DMEM/F12 with 10% FBS in a Matrigel-coated plate. After 24 hours, the cell media was replaced with fresh media to remove unattached and dead cells. After 2 days, cells were immunostained for GFAP and used for experiments. Perinuclear fat droplets were stained with BODIPY 493/503 (4,4-Difluoro-1,3,5,7,8-Pentamethyl-4-Bora-3a,4a-Diaza-s-Indacene; Invitrogen, catalog D3922) to confirm stellate cell quiescence.
Yoda 1 was resuspended in DMSO at 25 mM stock solution. […]

[3] = Yoda1, 24 hr, human stellate cells, preliminary

Question: Which results are given for `Clc1cccc(Cl)c1CSc1nnc(-c2cnccn2)s1` [Yoda1]?
Answer: PSC viability and membrane integrity [1]: did not affect PSC viability and membrane integrity; expression of fibronectin and IL-6 ([2]; Yoda1 25 μM, 24 hr): increased expression of fibronectin and IL-6; ACTA2 mRNA expression [2, 3]: decreases ACTA2; CD10 mRNA expression [2, 3]: increases CD10 expression; TRPV4 mRNA levels ([2]; human PSCs, 24 hr, Yoda1 5 μm and 25 μM): upregulates TRPV4 expression in PSCs
